# Values of other authors, collected in patent publication US20230372315A1, “Liquid-State Pharmaceutical Composition Exhibiting Excellent Preservative Effectiveness” (ISHIHARA SANGYO KAISHA, LTD., priority 2020, published 2023).
# Tests used:
# [1] = beyond pH8
# [2] = water having pH5 or less
SMILES,antibacterial activity [1],solubility in water [2]
OCc1ccccc1 [Benzyl alcohol],virtually no antibacterial activity,–
CCS(=O)(=O)Nc1ncc(C(F)(F)F)cc1NC(=O)C1CCCCC1 [N-(2-ethylsulfonylamino-5-trifluoromethyl-3-pyridyl)cyclohexanecarboxamide],–,virtually not dissolved
